This is an account of results in patent US20250134890A1, “ANTIMALARIAL HEXAHYDROPYRIMIDINE ANALOGUES” (UCB BIOPHARMA SRL, priority 2022, published 2025).

SMILES strings stand for the structures. Where a name gives a salt, the structure may show the parent alone.

Usually IC50 stands for the concentration needed to halve the response being measured.

One assay relates to Plasmodium falciparum: 3D7 strain. Kind of assay: P. falciparum 3D7 asexual blood stage assay (SYBR green readout). The class given is cell-based. Particulars: Plasmodium falciparum, 3D7, Erythrocyte, 72 h, P. falciparum 3D7 in human erythrocytes, 72 h incubation, SYBR green fluorescence. An outline of the steps: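 3D7-infected erythrocytes (5% haematocrit, 0.5% parasitaemia) were exposed 72 h at 37 °C under 1% O2/3% CO2 to a 20-point titration (50,000-15 nM final, 0.5% DMSO). Parasite DNA was read by SYBR green fluorescence after overnight lysis. Percent inhibition was set against mefloquine and DMSO, and EC50 came from a biphasic two-site fit.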
With `C[C@@H]1C[C@H](N2C(=N)N[C@](C)(c3cccc(-c4cccc(Cl)c4)c3Cl)CC2=O)CC[C@@H]1O` (relative stereo) [Example 7, (6S)-6-[2-Chloro-3-(3-chloro-phenyl)phenyl]-3-[(1R*,3R*,4S*)-4-hydroxy-3-methylcyclohexyl]-2-imino-6-methylhexahydro-pyrimidin-4-one hydrochloride], the IC50 was 720 nM.

`C[C@@]1(c2cccc(-c3cccc(Cl)c3)c2Cl)CC(=O)N([C@H]2CCOC[C@@H]2O)C(=N)N1` (relative stereo) [Example 95, (6S)-6-[2-Chloro-3-(3-chloro-phenyl)phenyl]-3-[(3R*,4S*)-3-hydroxytetrahydropyran-4-yl]-2-imino-6-methylhexahydro-pyrimidin-4-one hydrochloride] yielded an IC50 of 323 nM.

Take `C[C@H]1C[C@@H](N2C(=N)N[C@](C)(c3cccc(-c4ccc(NS(C)(=O)=O)cc4)c3Cl)CC2=O)CCC1(F)F` [Example 14, N-[4-(2-Chloro-3-{(4S)-1-[(1S,3S)-4,4-difluoro-3-methylcyclohexyl]-2-imino-4-methyl-6-oxohexahydro-pyrimidin-4-yl}phenyl)phenyl]-methanesulfonamide trifluoroacetic acid salt]: the IC50 came to 97 nM.

In turn, `C[C@H]1C[C@@H](N2C(=N)N[C@](C)(c3cccc(-c4cccc(C(O)C(F)(F)F)c4)c3Cl)CC2=O)CCO1` (single isomer, unassigned) [Example 28, (6S)-6-(2-Chloro-3-{3-[(1S*)-2,2,2-trifluoro-1-hydroxyethyl]phenyl}-phenyl)-2-imino-6-methyl-3-[(2S,4S)-2-methyltetrahydropyran-4-yl]hexahydropyrimidin-4-one hydrochloride] showed an IC50 of 26 nM.

Regarding `C[C@H]1C[C@@H](N2C(=N)N[C@](C)(c3cccc(-c4cn(Cc5ccncc5)nn4)c3Cl)CC2=O)CCO1` [Example 120, (6S)-6-{2-Chloro-3-[1-(pyridin-4-ylmethyl)-1,2,3-triazol-4-yl]-phenyl}-2-imino-6-methyl-3-[(2S,4S)-2-methyltetrahydropyran-4-yl]hexahydropyrimidin-4-one trifluoroacetic acid salt], it took 507 nM to reach half-maximal inhibition (IC50).

Turning to `C[C@H]1C[C@@H](N2C(=N)N[C@](C)(c3cccc(-c4cccc(C(F)(F)F)c4)c3Cl)CC2=O)CCO1` [Example 48, (6S)-6-{2-Chloro-3-[3-(trifluoro-methyl)phenyl]phenyl}-2-imino-6-methyl-3-[(2S,4S)-2-methyl-tetrahydropyran-4-yl]hexahydro-pyrimidin-4-one trifluoroacetic acid salt], 66 nM corresponded to half-maximal inhibition (IC50).

`C[C@H]1C[C@@H](N2C(=N)N[C@](C)(c3cccc(-c4ccc5ncn(CC(F)(F)F)c5c4)c3Cl)CC2=O)CCO1` [Example 6, (6S)-6-{2-Chloro-3-[3-(2,2,2-trifluoroethyl)benzimidazol-5-yl]-phenyl}-2-imino-6-methyl-3-[(2S,4S)-2-methyltetrahydropyran-4-yl]hexahydropyrimidin-4-one hydrochloride]: the IC50 is 26 nM.

`C[C@@H]1C[C@@H](N2C(=N)N[C@](C)(c3cccc(-c4ccc(Cl)cn4)c3Cl)CC2=O)CCS1(=O)=O` (relative stereo) [Example 77, (6S)-6-[2-Chloro-3-(5-chloro-pyridin-2-yl)phenyl]-2-imino-6-methyl-3-[(2R*,4S*)-2-methyl-1,1-dioxothian-4-yl]hexahydro-pyrimidin-4-one hydrochloride] came in with an IC50 of 460 nM.

The compound `C[C@H]1C[C@@H](N2C(=N)N[C@](C)(c3cccc(-c4ccncc4Cl)c3Cl)CC2=O)CCO1` [Example 57, (6S)-6-[2-Chloro-3-(3-chloro-pyridin-4-yl)phenyl]-2-imino-6-methyl-3-[(2S,4S)-2-methyl-tetrahydropyran-4-yl]hexahydro-pyrimidin-4-one trifluoroacetic acid salt] had an IC50 of 61 nM.

`C[C@H]1C[C@H](N2C(=N)N[C@](C)(c3cccc(-c4ccc(F)cc4F)c3Cl)CC2=O)CCS1(=O)=O` (relative stereo) [Example 65, (6S)-6-[2-Chloro-3-(2,4-difluoro-phenyl)phenyl]-2-imino-6-methyl-3-[(2S*,4R*)-2-methyl-1,1-dioxo-thian-4-yl]hexahydropyrimidin-4-one hydrochloride] showed an IC50 of 1300 nM.

Consider `C[C@H]1C[C@@H](N2C(=N)N[C@](C)(c3cccc(-c4cn(CC5CC(F)(F)C5)nn4)c3Cl)CC2=O)CCO1` [Example 116, (6S)-6-(2-Chloro-3-{1-[(3,3-difluorocyclobutyl)methyl]-1,2,3-triazol-4-yl}phenyl)-2-imino-6-methyl-3-[(2S,4S)-2-methyl-tetrahydropyran-4-yl]hexahydro-pyrimidin-4-one trifluoroacetic acid salt], for which the IC50 came to 208 nM.

Turning to `C[C@H]1C[C@@H](N2C(=N)N[C@](C)(c3cccc(-c4cccc(F)c4F)c3Cl)CC2=O)CCO1` [Example 50, (6S)-6-[2-Chloro-3-(2,3-difluoro-phenyl)phenyl]-2-imino-6-methyl-3-[(2S,4S)-2-methyltetrahydro-pyran-4-yl]hexahydropyrimidin-4-one trifluoroacetic acid salt], the IC50 stood at 84 nM.

`C[C@H]1C[C@@H](N2C(=N)N[C@](C)(c3cccc(-c4ccc(Cl)nc4)c3Cl)CC2=O)CCO1` [Example 55, (6S)-6-[2-Chloro-3-(6-chloro-pyridin-3-yl)phenyl]-2-imino-6-methyl-3-[(2S,4S)-2-methyl-tetrahydropyran-4-yl]hexahydro-pyrimidin-4-one trifluoroacetic acid salt] returned an IC50 of 11 nM.

`C[C@@H]1C[C@@H](N2C(=N)N[C@](C)(c3cccc(-c4ccc(F)cc4F)c3Cl)CC2=O)CCS1(=O)=O` (relative stereo) [Example 66, (6S)-6-[2-Chloro-3-(2,4-difluoro-phenyl)phenyl]-2-imino-6-methyl-3-[(2R*,4S*)-2-methyl-1,1-dioxo-thian-4-yl]hexahydropyrimidin-4-one hydrochloride] yielded an IC50 of 272 nM.

`C[C@H]1C[C@@H](N2C(=N)N[C@](C)(c3cccc(-c4cccc5cnn(C)c45)c3Cl)CC2=O)CCO1` [Example 56, (6S)-6-[2-Chloro-3-(1-methyl-indazol-7-yl)phenyl]-2-imino-6-methyl-3-[(2S,4S)-2-methyl-tetrahydropyran-4-yl]hexahydro-pyrimidin-4-one trifluoroacetic acid salt] came in with an IC50 of 43 nM.

As for `C[C@H]1C[C@H](N2C(=N)N[C@](C)(c3cccc(-c4ccc(OC(F)F)nc4)c3Cl)CC2=O)CCS1(=O)=O` (relative stereo) [Example 73, (6S)-6-{2-Chloro-3-[6-(difluoro-methoxy)pyridin-3-yl]phenyl}-2-imino-6-methyl-3-[(2S*,4R*)-2-methyl-1,1-dioxothian-4-yl]-hexahydropyrimidin-4-one hydrochloride], the IC50 came to 227 nM.

`C[C@@]1(c2cccc(-c3cccc(Cl)c3)c2Cl)CC(=O)N([C@H]2CCC(F)(F)[C@@H](O)C2)C(=N)N1` (relative stereo) [Example 21, (S)-6-[2,3′-Dichloro(1,1′-biphenyl)-3-yl]-3-[(1S*,3S*)-4,4-difluoro-3-hydroxycyclohexyl]-2-imino-6-methyltetrahydropyrimidin-4(1H)-one trifluoroacetic acid salt]: the IC50 is 726 nM.

As for `C[C@H]1C[C@@H](N2C(=N)N[C@](C)(c3cccc(-c4cn(CCN5CCCC5)nn4)c3Cl)CC2=O)CCO1` [Example 118, (6S)-6-(2-Chloro-3-{1-[2-(pyrrolidin-1-yl)ethyl]-1,2,3-triazol-4-yl}phenyl)-2-imino-6-methyl-3-[(2S,4S)-2-methyl-tetrahydropyran-4-yl]hexahydro-pyrimidin-4-one trifluoroacetic acid salt], the IC50 amounted to 1010 nM.

Turning to `C[C@H]1C[C@@H](N2C(=N)N[C@](C)(c3cccc(-c4ccn(C)c(=O)c4)c3Cl)CC2=O)CCO1` [Example 34, (6S)-6-[2-Chloro-3-(1-methyl-2-oxopyridin-4-yl)phenyl]-2-imino-6-methyl-3-[(2S,4S)-2-methyl-tetrahydropyran-4-yl]hexahydro-pyrimidin-4-one trifluoroacetic acid salt], the IC50 came out at 286 nM.

`C[C@H]1C[C@@H](N2C(=N)N[C@](C)(c3cccc(-c4cn(-c5cccc(F)c5)nn4)c3Cl)CC2=O)CCO1` [Example 111, (6S)-6-{2-Chloro-3-[1-(3-fluoro-phenyl)-1,2,3-triazol-4-yl]phenyl}-2-imino-6-methyl-3-[(2S,4S)-2-methyltetrahydropyran-4-yl]-hexahydropyrimidin-4-one hydrochloride]: the IC50 was 66 nM.

Compound `C[C@H]1C[C@@H](N2C(=N)N[C@](C)(c3cccc(-c4ccc(F)cc4F)c3Cl)CC2=O)CCO1` [Example 51, (6S)-6-[2-Chloro-3-(2,4-difluoro-phenyl)phenyl]-2-imino-6-methyl-3-[(2S,4S)-2-methyltetrahydro-pyran-4-yl]hexahydropyrimidin-4-one trifluoroacetic acid salt] came in with an IC50 of 95 nM.

Still in this assay, the particulars now being: Plasmodium falciparum, Erythrocyte; P. falciparum 3D7 in human erythrocytes, 72 h incubation, SYBR green fluorescence; read-out: IC50.
In the case of `CN1CCC(N2C(=N)N[C@](C)(c3cccc(-c4cccc(Cl)c4)c3Cl)CC2=O)CC1` [Example 90, (6S)-6-[2-Chloro-3-(3-chloro-phenyl)phenyl]-2-imino-6-methyl-3-(1-methylpiperidin-4-yl)-hexahydropyrimidin-4-one], the IC50 stood at 122 nM.

As to `CN1CCC(N2C(=N)N[C@](C)(c3cccc(-c4ccc(F)cc4F)c3Cl)CC2=O)CC1` [Example 93, (6S)-6-[2-Chloro-3-(2,4-difluoro-phenyl)phenyl]-2-imino-6-methyl-3-(1-methylpiperidin-4-yl)-hexahydropyrimidin-4-one], the IC50 turned out to be 112 nM.
